Common to all, as to assay: NCI anticancer screen, dose series, 48 h
The subject of test [1] is 786-0.
Test [2] deals with RXF 393.
In test [3] the test system is K562.
The subject of test [4] is UACC-62.
Test [5] concerns EKVX.
For test [6], the system named is UO-31.
The test system of test [7] is TK-10.
Test [8] relates to SNB-75.
For test [9], the system named is SW-620.
Test [10] concerns HT-29.
Test [11] deals with A498.
Test [12] has as its system U-251.
Test [13] deals with SK-MEL-5.
Test [14] relates to RPMI-8226.
The subject of test [15] is OVCAR-4.
Test [16] deals with MCF7.

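Method: 48-hour compound exposure of cells in 96-well plates, five concentrations, linear interpolation of endpoints. The concentration for 50% growth inhibition is given as GI50.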 The source made the active and inactive calls. Rule as the data show it: active = GI50 up to about 1.1 µM and inactive = higher. Some results are limits rather than exact numbers.

Consider `Cc1nc(-n2nc(-c3ccccc3)cc2-c2ccccc2)sc1C(=O)/C=C/c1ccccc1`, for which the GI50 in [1] is > 100 µM (inactive); in test [2], > 100 µM (inactive); in test [3], 49.8 µM (inactive); in test [4], > 100 µM (inactive); in test [5], 32.9 µM (inactive); in [6], 17.9 µM (inactive). Further, the GI50 in test [7] is > 100 µM (inactive); in test [8] it was 6.58 µM (inactive); in test [9], 59 µM (inactive); in [10], > 100 µM (inactive); in test [11], > 100 µM (inactive); in test [12] it was > 100 µM (inactive). The GI50 in [13] was 23.5 µM (inactive); in [14] it was > 100 µM (inactive).

Turning to `O=C(O)c1c[nH]cc1C(=O)O`, the GI50 in test [1], in test [2], in test [3], in [4], in [5] and in [6] was > 100 µM (inactive) throughout. Also, the GI50 in test [7] is > 100 µM (inactive); in test [15], > 100 µM (inactive); in test [8], 96.4 µM (inactive); in [9], > 100 µM (inactive); in [10] it was > 100 µM (inactive); in [11], > 100 µM (inactive). Further, the GI50 in test [12], in test [13] and in test [14] was > 100 µM (inactive) each time.

`COC(=O)CCC(=O)Nc1cc(C)ccc1C`: the GI50 in test [1], in [2], in [3], in test [4], in test [5] and in test [6] was > 100 µM (inactive) throughout. Besides, the GI50 in test [7], in test [15], in test [8], in test [9], in [10] and in [11] was > 100 µM (inactive) throughout. Moreover, the GI50 in test [12], in [13] and in [14] was > 100 µM (inactive) throughout.

Turning to `COc1cccc(NC(=S)Nn2c(C)nc3ccccc3c2=O)c1`, the GI50 in [1] was > 100 µM (inactive); in test [2], > 100 µM (inactive); in test [3], > 100 µM (inactive); in [4], 71.6 µM (inactive); in test [6], > 100 µM (inactive); in test [7], > 100 µM (inactive). The GI50 in test [15], in test [8], in test [9], in test [10], in test [11] and in test [12] was > 100 µM (inactive) in each case. The GI50 in test [13] and in test [14] was > 100 µM (inactive) each time.

Regarding `NC(=O)N/N=C(\Cc1nc2ccc(C(=O)c3ccccc3)cc2nc1O)C(=O)Nc1ccc(Br)cc1`, the GI50 in [1], in test [2], in test [3], in test [4], in [5] and in test [6] was > 100 µM (inactive) in each case. For the same compound, the GI50 in test [7], in test [15], in test [8], in test [9], in test [10] and in test [11] was > 100 µM (inactive) each time. The GI50 in test [12], in test [13] and in test [14] was > 100 µM (inactive) in each case.

Regarding `CCN(CCCl)CCNc1c2ccccc2nc2ccc(OC)cc12`, the GI50 in test [1] was 0.254 µM (active); in [16], 0.378 µM (active); in test [2] it was 0.54 µM (active); in test [3], 0.213 µM (active); in test [4], 0.551 µM (active); in test [5], 1.27 µM (inactive). Besides, the GI50 in test [6] is 1.44 µM (inactive); in test [7] it was 1.58 µM (inactive); in [15], 0.794 µM (active); in test [8], 0.966 µM (active); in test [9] it was 0.132 µM (active); in test [10], 0.267 µM (active). Besides, the GI50 in test [11] was 1.78 µM (inactive); in test [12], 0.906 µM (active); in test [13], 1.12 µM (active); in test [14], 0.0977 µM (active).

Take `COc1cc(/C=C(\OC(C)=O)c2ccc3c(c2)OCO3)cc(OC)c1OC`: the GI50 in test [1] was 29 µM (inactive); in test [2], 24.8 µM (inactive); in test [3] it was 25.5 µM (inactive); in test [4], 16.6 µM (inactive); in test [5], 15.9 µM (inactive); in test [6], 4.15 µM (inactive). The GI50 in test [7] was 26.6 µM (inactive); in test [15], 18.3 µM (inactive); in test [8], 20.6 µM (inactive); in [9] it was 28.5 µM (inactive); in test [10], 22.3 µM (inactive); in test [11] it was 16.1 µM (inactive). Besides, the results for the GI50 in test [12], in [13] and in [14] were 18.5 µM (inactive), 11.8 µM (inactive) and 20.8 µM (inactive), respectively.

On to `CC1CC(=O)CC[C@@H]1OCc1ccccc1` (some centres not stated), for which the GI50 in [1] is > 100 µM (inactive); in test [2] it was > 100 µM (inactive); in test [3], 58.1 µM (inactive); in [4], > 100 µM (inactive); in [5], > 100 µM (inactive); in test [6], > 100 µM (inactive). Besides, the GI50 in test [7], in test [15], in test [8], in [9], in test [10] and in [11] was > 100 µM (inactive) throughout. Moreover, the figures for the GI50 in [12], in test [13] and in test [14] were > 100 µM (inactive), > 100 µM (inactive) and 47 µM (inactive), respectively.

`Cc1cc2c(=O)n(-c3ccc(F)cc3)c(C)nc2c(C(=O)O)c1C`: the GI50 in test [1], in test [2], in test [3], in test [4], in test [5] and in test [6] was > 100 µM (inactive) in each case. Besides, the GI50 in test [7], in [15], in [8], in [9], in test [10] and in test [11] was > 100 µM (inactive) throughout. Moreover, the GI50 in test [12], in test [13] and in test [14] was > 100 µM (inactive) each time.

`NNC(=O)C(=O)N/N=C(\CCCC(=O)Nc1ccc(Cl)cc1)CC(=O)c1ccc(F)cc1`: the GI50 in test [1] was > 100 µM (inactive); in test [2], > 100 µM (inactive); in [4], 3.43 µM (inactive); in test [5], > 100 µM (inactive); in [6] it was > 100 µM (inactive); in test [7] it was > 100 µM (inactive). The GI50 in test [15] is > 100 µM (inactive); in test [8], > 100 µM (inactive); in test [9], > 100 µM (inactive); in test [10] it was 83.2 µM (inactive); in [11], 2.66 µM (inactive); in [12], > 100 µM (inactive). For the same compound, the GI50 in test [13] was > 100 µM (inactive); in test [14], 36.1 µM (inactive).

`CC1CCC(=O)NCCCCC(=O)N1` (configuration not stated): the GI50 in test [1], in test [2], in test [3], in test [4], in [5] and in test [6] was > 100 µM (inactive) in each case. The GI50 in test [7] was > 100 µM (inactive); in [15] it was > 100 µM (inactive); in test [8], 43.3 µM (inactive); in test [9], > 100 µM (inactive); in test [10], > 100 µM (inactive); in test [11] it was > 100 µM (inactive). Further, the GI50 in test [12], in test [13] and in test [14] was > 100 µM (inactive) throughout.

Regarding `O=C(Nc1ccc([N+](=O)[O-])cc1)C1C(=O)C(=O)N(c2ccc([N+](=O)[O-])cc2)C1=O` (configuration not stated), the GI50 was 67.1 µM (inactive) in test [1]; > 100 µM (inactive) in test [2]; 8.07 µM (inactive) in [3]; 2.72 µM (inactive) in test [4]; > 100 µM (inactive) in [5]; 78 µM (inactive) in test [6]. The GI50 in test [7] is > 100 µM (inactive); in [8], > 100 µM (inactive); in test [9], 17.6 µM (inactive); in [10], > 100 µM (inactive); in test [11], > 100 µM (inactive); in [12], > 100 µM (inactive). In addition, the GI50 in [13] is 12 µM (inactive); in test [14] it was 46.5 µM (inactive).

With `CN1CCc2c1nc(-c1ccc([N+](=O)[O-])cc1)c1c2N(C)CC1`, the GI50 in test [1] was > 100 µM (inactive); in test [2] it was 35.2 µM (inactive); in test [3] it was 46 µM (inactive); in test [4] it was > 100 µM (inactive); in [5] it was > 100 µM (inactive); in test [6] it was 33.1 µM (inactive). Also, the GI50 in [7] was > 100 µM (inactive); in test [15], > 100 µM (inactive); in test [8] it was > 100 µM (inactive); in [9], > 100 µM (inactive); in [10], 25.5 µM (inactive); in test [11], 43.2 µM (inactive). The GI50 was > 100 µM (inactive) in [12], 97.3 µM (inactive) in [13] and 48 µM (inactive) in [14].

These data come from ChEMBL document CHEMBL1201862, “PubChem BioAssay data set” (2004).
